Results from ChEMBL document CHEMBL5338747, “Discovery of Quaternized Pyridine-Thiazole-Pleuromutilin Derivatives with Broad-Spectrum Antibacterial and Potent Anti-MRSA Activity” (J Med Chem, 2023).
Active and inactive are the calls of the source. No cut-off for these calls is given here.

Legend:
Cell membrane [1] = test: Disruption of bacterial cell membrane in Escherichia coli ATCC 25922 incubated for 4 hrs by FESEM analysis; type: subcellular
Salmonella enterica = test: Antibacterial activity against Salmonella enterica ATCC 14028 assessed as inhibition of bacterial growth incubated for 24 hrs by broth microdilution method; type: functional
Staphylococcus aureus [2] = test: Antibacterial activity against methicillin-resistant Staphylococcus aureus ATCC 33591 infected in Kunming mouse assessed as reduction in bacterial load in lungs at 5 to 10 mg/kg, ip for 2 days starting from 1 hr post-infection by hematoxylin-eosin staining based analysis; type: functional, organism-based; details: dose 5-10 mg/kg, time 2.0 day
[3] = Metabolic stability in Sprague-Dawley rat assessed as parent compound remaining at 3 mg/kg, po measured after 10 mins by LC-MS analysis; type: ADME, organism-based; details: in vivo, read-out: Stability
Staphylococcus aureus [4] = test: Antibacterial activity against methicillin-resistant Staphylococcus aureus ATCC 33591 infected in Kunming mouse assessed as reduction in bacterial load in liver at 5 to 10 mg/kg, ip for 2 days starting from 1 hr post-infection by hematoxylin-eosin staining based analysis; type: functional, organism-based; details: dose 5-10 mg/kg, time 2.0 day
Staphylococcus aureus [5] = test: Antibacterial activity against methicillin-resistant Staphylococcus aureus 596 assessed as inhibition of bacterial growth incubated for 24 hrs by broth microdilution method; type: functional
[6] = Drug metabolism in Sprague-Dawley rat plasma assessed as metabolite formation at 10 mg/kg, iv measured after 1 hr by UPLC/Q-TOF-MS analysis; type: ADME, organism-based; details: in vivo
[7] = test system: Staphylococcus epidermidis; test: Antibacterial activity against methicillin-resistant Staphylococcus epidermidis ATCC 51625 assessed as inhibition of bacterial growth incubated for 24 hrs by broth microdilution method; type: functional
Staphylococcus aureus [8] = test: Antibacterial activity against methicillin-resistant Staphylococcus aureus ATCC 43300 assessed as inhibition of bacterial growth incubated for 24 hrs by broth microdilution method; type: functional
Escherichia coli [9] = test: Bactericidal activity against Escherichia coli ATCC 25922 assessed as reduction in bacterial colonies formation at 4XMIC incubated for 4 hrs in MHB followed by culturing on agar plate for 24 hrs by time-kill kinetics based analysis; type: functional; set-up: scale not given: the % may be the effect or the level left; details: time 28 hrs
Staphylococcus aureus [10] = test: Disruption of biofilm formation in methicillin-resistant Staphylococcus aureus ATCC 33591 assessed as inhibition of biofilm formation at 4XMIC measured after 24 hrs by crystal violet staining based analysis; type: functional
Escherichia coli [11] = test: Bactericidal activity against Escherichia coli ATCC 25922 assessed as reduction in bacterial colonies formation at MIC incubated for 24 hrs in MHB followed by culturing on agar plate for 24 hrs by time-kill kinetics based analysis; type: functional; details: time 48 hrs
Escherichia coli [12] = test: Antibacterial activity against Escherichia coli CMCC 44103 assessed as inhibition of bacterial growth incubated for 24 hrs by broth microdilution method; type: functional
Mycoplasmopsis synoviae [13] = test: Potency index, ratio of tiamulin MIC to test compound MIC against anti-mycoplasma activity against Mycoplasma synoviae WVU1853 NCTC10124; type: functional
[14] = Aqueous solubility of the compound in physiological saline measured after 12 hrs by UV spectrophotometric analysis; type: physicochemical
Escherichia coli [15] = test: Disruption of biofilm formation in Escherichia coli ATCC 25922 assessed as inhibition of biofilm formation at MIC measured after 24 hrs by crystal violet staining based analysis; type: functional
Staphylococcus aureus [16] = test: Antibacterial activity against methicillin-resistant Staphylococcus aureus ATCC 33591 assessed as inhibition of bacterial growth incubated for 24 hrs by broth microdilution method; type: functional
Staphylococcus aureus [17] = test: Antibacterial activity against methicillin-resistant Staphylococcus aureus 171 assessed as inhibition of bacterial growth incubated for 24 hrs by broth microdilution method; type: functional
Cell membrane [18] = test: Disruption of bacterial cell membrane in methicillin-resistant Staphylococcus aureus ATCC 33591 assessed as increase in fluorescence intensity by DiBAC4(3) dye based fluorescence analysis; type: subcellular
[19] = Cytotoxicity against human HEK293 cells assessed as reduction in cell viability measured after 48 hrs by CCK8 assay; type: toxicity, cell-based
Escherichia coli [20] = test: Antibacterial activity against Escherichia coli ATCC 25922 assessed as inhibition of bacterial growth incubated for 24 hrs by broth microdilution method; type: functional
Mycoplasmopsis synoviae [21] = test: Anti-mycoplasma activity against Mycoplasma synoviae WVU1853 NCTC10124 assessed as inhibition of mycoplasma growth measured after 7 days by broth microdilution method; type: functional; details: WVU1853 NCTC10124, 168 h, time 7 day
[22] = test system: Mesomycoplasma hyopneumoniae; test: Anti-mycoplasma activity against Mycoplasma hyopneumoniae J NCTC10110 assessed as inhibition of mycoplasma growth measured after 7 days by broth microdilution method; type: functional; details: J NCTC10110, 168 h, time 7 day
Cell membrane [23] = test: Disruption of bacterial cell membrane in Escherichia coli ATCC 25922 assessed as reduction in green fluorescence intensity at MIC incubated for 2 hrs by MycoLightGreen1198/PI staining based confocal laser scanning microscopy
Cell membrane [24] = test: Disruption of bacterial cell membrane in Escherichia coli ATCC 25922 assessed as increase in fluorescence intensity at 8XMIC measured within 3 mins by DiBAC4(3) dye based fluorescence analysis relative to control
Pseudomonas aeruginosa = test: Antibacterial activity against multidrug-resistant Pseudomonas aeruginosa 126 assessed as inhibition of bacterial growth incubated for 24 hrs by broth microdilution method; type: functional
Staphylococcus aureus [25] = test: Antibacterial activity against […] assessed as inhibition of bacterial growth incubated for 24 hrs by broth microdilution method; type: functional; details: ATCC 29213
Staphylococcus aureus [26] = test: Bactericidal activity against methicillin-resistant Staphylococcus aureus ATCC 33591 assessed as reduction in bacterial colonies formation at 4XMIC incubated for 8 hrs in MHB followed by culturing on agar plate for 24 hrs by time-kill kinetics based analysis; type: functional; set-up: scale not given: the % may be the effect or the level left; details: time 32 hrs
[27] = Half-life in Sprague-Dawley rat at 1 mg/kg, iv by LC-MS analysis; type: ADME, organism-based; details: in vivo
Staphylococcus aureus [28] = test: Antibacterial activity against methicillin-resistant Staphylococcus aureus 575 assessed as inhibition of bacterial growth incubated for 24 hrs by broth microdilution method; type: functional
Staphylococcus aureus [29] = test: Antibacterial activity against methicillin-resistant Staphylococcus aureus ATCC 33591 infected in ip dosed Kunming mouse assessed as protection against bacterial infection administered for 7 days starting from 1 hr post-infection; type: functional
Staphylococcus aureus [30] = test: Antibacterial activity against methicillin-resistant Staphylococcus aureus 206 assessed as inhibition of bacterial growth incubated for 24 hrs by broth microdilution method; type: functional
[31] = test system: Mycoplasmoides gallisepticum; test: Anti-mycoplasma activity against Mycoplasma gallisepticum R NCTC10115 assessed as inhibition of mycoplasma growth measured after 7 days by broth microdilution method; type: functional; details: R NCTC10115, 168 h, time 7 day
Cell membrane [32] = test: Disruption of bacterial cell membrane in Escherichia coli ATCC 25922 assessed as increase in number of surface folds and atrophy at MIC incubated for 4 hrs by FESEM analysis
Staphylococcus aureus [33] = test: Antibacterial activity against methicillin-resistant Staphylococcus aureus ATCC 33591 infected in Kunming mouse assessed as animal survival rate at 10 mg/kg, ip for 7 days starting from 1 hr post-infection; type: functional; details: ATCC 33591, 168 h, time 7 day
[34] = Volume of distribution at steady state in Sprague-Dawley rat at 1 mg/kg, iv by LC-MS analysis; type: ADME, organism-based; details: in vivo, read-out: Vdss

Q: With C=C[C@]1(C)C[C@@H](OC(=O)CSc2nc(-c3cc[n+](Cc4ccc(C)cc4)cc3)cs2)[C@]2(C)[C@H](C)CC[C@]3(CCC(=O)[C@H]32)[C@@H](C)[C@@H]1O.[Br-] as the molecule, how does the Activity (Cell membrane [1]) read?
A: The Activity was “Dose-Dependent Effect”.

Q: What about the MIC (Salmonella enterica) of the same molecule?
A: The MIC was 2 µg/mL.

Q: What about the Activity (Staphylococcus aureus [2]) of the same molecule?
A: Its Activity is “Active”.

Q: What about the remaining at 10 min [3] of the same molecule?
A: The remaining at 10 min was 0%.

Q: And the Activity (Staphylococcus aureus [4])?
A: The Activity was “Active”.

Q: And the MIC (Staphylococcus aureus [5])?
A: Its MIC is 2 µg/mL.

Q: What about the Drug metabolism [6] of the same molecule?
A: The Drug metabolism was “Metabolite_Detected”.

Q: And the MIC [7]?
A: The MIC was 1 µg/mL.

Q: And the MIC (Staphylococcus aureus [8])?
A: Its MIC is 0.5 µg/mL.

Q: What about the Activity (Escherichia coli [9]) of the same molecule?
A: Its Activity is 100%.

Q: And the “inhibition (INH)” value (Staphylococcus aureus [10])?
A: Its value is 86.43%.

Q: What about the Activity (Escherichia coli [11]) of the same molecule?
A: Its Activity is 6.98 log10CFU/ml.

Q: And the MIC (Escherichia coli [12])?
A: The MIC was 0.5 µg/mL.

Q: What about the Ratio (Mycoplasmopsis synoviae [13]) of the same molecule?
A: Its Ratio is 10.

Q: And the solubility at 12 h [14]?
A: The solubility at 12 h was 862 µM.

Q: And the “inhibition (INH)” value (Escherichia coli [15])?
A: Its value is 59.04%.

Q: What about the MIC (Staphylococcus aureus [16]) of the same molecule?
A: Its MIC is 1 µg/mL.

Q: And the MIC (Staphylococcus aureus [17])?
A: Its MIC is 4 µg/mL.

Q: What about the Activity (Cell membrane [18]) of the same molecule?
A: The Activity was “Dose-Dependent Effect”.

Q: And the CC50 at 48 h [19]?
A: The CC50 at 48 h was greater than 100 µM.

Q: What about the MIC (Escherichia coli [20]) of the same molecule?
A: The MIC was 0.062 µg/mL.

Q: And the MIC (Mycoplasmopsis synoviae [21])?
A: The MIC was 0.015 µg/mL.

Q: What about the MIC [22] of the same molecule?
A: Its MIC is 0.004 µg/mL.

Q: And the Activity (Cell membrane [23])?
A: Its Activity is “Active”.

Q: What about the fold change (FC) (Cell membrane [24]) of the same molecule?
A: The fold change (FC) was 6.

Q: What about the MIC (Pseudomonas aeruginosa) of the same molecule?
A: The MIC was 64 µg/mL.

Q: And the MIC (Staphylococcus aureus [25])?
A: Its MIC is 0.062 µg/mL.

Q: And the Activity (Staphylococcus aureus [26])?
A: Its Activity is 100%.

Q: What about the half-life [27] of the same molecule?
A: Its half-life is 43.8 min.

Q: What about the MIC (Staphylococcus aureus [28]) of the same molecule?
A: Its MIC is 8 µg/mL.

Q: What about the ED50 (Staphylococcus aureus [29]; ATCC 33591, 168 h, time 7 day) of the same molecule?
A: Its ED50 is 4.94 mg/kg.

Q: What about the Activity (Staphylococcus aureus [29]; time 7.0 day) of the same molecule?
A: Its Activity is “Dose-Dependent Effect”.

Q: What about the MIC (Staphylococcus aureus [30]) of the same molecule?
A: The MIC was 2 µg/mL.

Q: What about the MIC [31] of the same molecule?
A: Its MIC is 0.004 µg/mL.

Q: What about the Activity (Cell membrane [32]) of the same molecule?
A: Its Activity is “Active”.

Q: What about the survival at 10 mg/kg (Staphylococcus aureus [33]) of the same molecule?
A: The survival at 10 mg/kg was 71.4%.

Q: What about the Vd [34] of the same molecule?
A: Its Vd is 2.1 L/kg.
